Results published in PMC3141655 (BMC Biochemistry, 2011).
Entries after “also recorded” stand apart in the source; their conditions may differ. Where two headings read alike, the source gives them in different places.

Assays:
[1] = target: OASS; design: method as in PMID 7547955; conditions: earlier study; read-out: Kd, reported value; cited from earlier work
[2] = target: T1, StOASS (O-acetylserine sulfhydrylase) (Salmonella typhimurium, UniProt P0A1E3); assay: PLP fluorescence titration of ligands with StOASS; type: binding; design: His tag (N); made in house; host or cells: E. coli BL21(DE3), pET28a(+); conditions: for change of OASS PLP fluorescence upon addition of ligand: up to ~1 mM ligand
T1 sequence (P0A1E3 whole entry): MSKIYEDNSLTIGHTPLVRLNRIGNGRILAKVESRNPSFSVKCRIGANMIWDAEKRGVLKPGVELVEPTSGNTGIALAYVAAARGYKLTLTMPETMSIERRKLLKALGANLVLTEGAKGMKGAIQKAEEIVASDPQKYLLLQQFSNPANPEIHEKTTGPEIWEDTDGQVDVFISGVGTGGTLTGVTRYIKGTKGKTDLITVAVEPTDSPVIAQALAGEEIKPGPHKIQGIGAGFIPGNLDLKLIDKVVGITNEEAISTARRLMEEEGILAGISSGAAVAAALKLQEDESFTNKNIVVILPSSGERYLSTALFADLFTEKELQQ
Method: Titrations of ligands with StOASS were examined by monitoring changes in the active site pyridoxal 5'phosphate (PLP) fluorescence of OASS using a Varian spectrofluorometer. The excitation and emission wavelengths for monitoring PLP signal change upon ligand binding were 412 nm and 507 nm respectively. All experiments were done at 23.0 ± 1°C. Slit widths were set to 5 nm for all experiments and PMT voltage was adjusted to get maximum signal for a given protein concentration. Initial readings of both the sample, Fsamp,0 and buffer, Fbuf,0 were taken, with F0 = Fsamp,0-Fbuf,0 defined as the initial fluorescence of the sample. The sample cuvette was then titrated with aliquots of ligands and mixed, equilibrated for 2-5 minutes before measurement. Data points from five such measurements were averaged to obtain Fave,i. The relative fluorescence quenching upon ligand binding is defined as Qobs,i = (F0-Fobs,i)/F0. All measurements were corrected for dilution, and inner filter effects.
Binding of ligands to OASS was analyzed to obtain the equilibrium binding constant, Kobs = [PL]/[P]*[L], using a single or two independent site binding models (eqn 1)(1) [drawing 1]
Where n, number of binding sites, Qobs, observed fluorescence quenching and Qmax, the maximum fluorescence quenching at saturation.

[3] = target: T1, StOASS (O-acetylserine sulfhydrylase)
Method: (§1) Isothermal titration calorimetry (ITC) experiments were performed using a Nano-ITC (TA-Instruments). OASS was dialyzed at 25°C in 20 mM Tris buffer (pH 8.0) and 50 mM NaCl. Buffer solutions were degassed at room temperature prior to use. […] The heat of dilution for each injection was determined using buffer in the cell. Data obtained from the titration of ligands with OASS were analyzed using either a two-sites binding model (eqn 2)(2) [drawing 2]
(§2) Qi^tot is total heat after the i^th injection, V0 is the volume of calorimetric cell, K1 and K2 are the observed equilibrium constants for each site, and ΔH1 and ΔH2 are the corresponding enthalpy changes. Estimates of Kobs and ΔH were obtained by fitting the experimental data to the model and the best-fit parameters were selected based on the lowest Chi-squared values.

[4] = tested on: OASS (StOASS and HiOASS); type: biochemical; conditions: purified enzymes; read-out: Km,OAS
[5] = target: HiOASS (O-acetylserine sulfhydrylase) (Haemophilus influenzae, UniProt P45040)
HiOASS (O-acetylserine sulfhydrylase), sequence (P45040 whole entry): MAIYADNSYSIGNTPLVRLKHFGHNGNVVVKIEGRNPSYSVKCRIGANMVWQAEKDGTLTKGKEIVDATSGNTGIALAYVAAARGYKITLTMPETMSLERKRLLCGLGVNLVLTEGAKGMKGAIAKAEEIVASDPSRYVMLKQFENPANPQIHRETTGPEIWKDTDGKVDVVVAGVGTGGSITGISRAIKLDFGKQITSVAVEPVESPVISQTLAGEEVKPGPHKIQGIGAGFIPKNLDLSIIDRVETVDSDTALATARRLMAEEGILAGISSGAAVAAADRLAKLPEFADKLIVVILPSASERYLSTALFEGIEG
Method: as §1, §2

[6] = target: OASS; design: method as in PMID 10995767; conditions: from Kext, single-wavelength stopped flow; cited from earlier work
[7] = 25°C, 20 mM Tris pH 8.0, 50 mM NaCl

Row | SMILES | Kd [1] | change of OASS PLP fluorescence upon addition of ligand ([2]; pH 8.0 (20 mM Tris, 20 mM NaCl)) | change of OASS PLP fluorescence upon addition of ligand ([2]; pH 9.5 (20 mM Tris, 20 mM NaCl)) | Kd ([2]; pH 9.5, 20 mM Tris, 20 mM NaCl, read-out: Kd (equilibrium dissociation constant)) | Kd [3] | contribution of enthalpy to total binding free energy ([3]; 25°C) | apparent binding constant [3, 7] | ΔG [3, 7] | Km [4] | Kd [5] | contribution of enthalpy to total binding free energy ([5]; 25°C) | binding constant [5, 7] | enthalpy value [5, 7] | ΔG [5, 7] | Kd [6]
1 | N[C@@H](CO)C(=O)O [L-serine] | 4.2 mM | does not change OASS fluorescence; also recorded: does not change PLP | leads to changes in the OASS fluorescence; also recorded: increases the PLP fluorescence | ~3.7 mM | – | – | – | – | – | – | – | – | – | – | –
2 | CC(=O)OC[C@H](N)C(=O)O [OAS, O-acetylserine] | – | – | – | – | 0.56 mM | less than 3% | ~ 1.8 ± 0.6 × 10^3 M^-1 | -17.6 kJ/M | 900 to 1400 µM | ~0.77 mM | less than 3% | ~ 1.3 ± 0.4 × 10^3 M^-1 | 0.45 ± 0.3 kJ/M | -16.9 kJ/M | ~5.6 mM
